Data: patent US20240398822A1, “METHODS AND COMPOSITIONS FOR TREATING AND MANAGING ALZHEIMER'S DISEASE” (Pharmatrophix, Inc., priority 2021, published 2024)

Experiment: Phase 1 SAD/MAD pharmacokinetics
Format: in vivo
Excerpt: The phase 1 study was placebo controlled and double blinded and included 52 subjects in SAD studies and 20 subjects in MAD studies.

For `NCCN1CCOCC1` [aminoethyl morpholine metabolite, aminoethyl morpholine], the food effect (elderly adults, fed versus fasted) was “apparent food effect”, the “pharmacokinetics after single oral doses” value (exposure proportional to dose over 100-900 mg of free base) was “linear pharmacokinetics” and the “time to reach steady state upon multiple dosing” value (in vivo) was “approximately 5 days post dose”.
